The first experiment relates to BaF3 (EGFR L858R/T790M/C797S). As to the kind of experiment: Cell proliferation IC50 assay (Cell Titer GLO), BaF3 LTC cells. The experiment is classed as cell-based. To be noted: Mus musculus, Ba/F3 EGFR, Table 6, 72 h. On the procedure:
(§1) IC50 of compounds in the present invention was determined by Cell Titer GLO reagent from Promega. The procedures are as follows:
(§2) Tumor cells were cultured in specified medium in an incubator at 37° C. and 5% CO2. The cells were passaged periodically. Cells at the logarithmic growth phase were collected for plating at a density of 2000-4000 cells/well. The next day, the compounds of the present invention were serially diluted and added to the cells, with DMSO being the negative control and the culture media without cells being the blank control. The plate was incubated in the incubator for 72 h. The cell viability assay was performed by adding the detection reagents to the cell culture media according to Cell Titer GLO reagent instructions and detecting luminescent signals on an EnVision microplate reader (PerkinElmer).
(§3) Inhibition of cell growth by the compounds of the present invention was plotted by Prism Graphpad software for statistically calculating the IC50 of the compound of the present invention.
The IC50 is the point on the concentration scale where inhibition reaches its midpoint. In turn, `CCc1cc(Nc2ncc(Cl)c(Nc3ccccc3N(C)S(C)(=O)=O)n2)c(OC)cc1N1CCC(N2CCN(CCC#Cc3cccc4c3CN(C3CCC(=O)NC3=O)C4=O)CC2)CC1` (stereo not shown) [Example E42] displayed an IC50 of 43.4 nM.
Molecule `COc1cc(N2CCC(N3CCN(CCCCOc4cccc5c4CN(C4CCC(=O)NC4=O)C5=O)CC3)CC2)c(CO)cc1Nc1ncc(Cl)c(Nc2ccccc2P(C)(C)=O)n1` (stereo not shown) [Example E127] yielded an IC50 of 79.6 nM.
As to `CCc1cc(Nc2ncc(C(=O)N3CCCC3)c(Nc3ccccc3P(C)(C)=O)n2)c(OC)cc1N1CCC(N2CCN(CCOc3cccc4c3CN(C3CCC(=O)NC3=O)C4=O)CC2)CC1` (stereo not shown) [Example E148], the IC50 is > 4000 nM.
Molecule `CCc1cc(Nc2ncc(-c3ccn(C)n3)c(Nc3ccccc3P(C)(C)=O)n2)c(OC)cc1N1CCC(N2CCN(CCOc3cccc4c3CN(C3CCC(=O)NC3=O)C4=O)CC2)CC1` (stereo not shown) [Example E147] had an IC50 of 2000 nM.
On to `CCc1cc(Nc2ncc(-n3ccnc3)c(Nc3ccccc3P(C)(C)=O)n2)c(OC)cc1N1CCC(N2CCN(CCOc3cccc4c3CN(C3CCC(=O)NC3=O)C4=O)CC2)CC1` (stereo not shown) [Example E170], for which the IC50 is > 4000 nM.
As for `CCc1cc(Nc2ncc(Cl)c(Nc3ccccc3P(C)(C)=O)n2)c(OC)cc1N1CCC2(CCN(CCCC#Cc3c(F)ccc4c3CN(C3CCC(=O)NC3=O)C4=O)CC2)CC1` (stereo not shown) [Example E74], the IC50 turned out to be 160 nM.
Turning to `CCc1cc(Nc2ncc(-c3nnc(C)o3)c(Nc3ccccc3P(C)(C)=O)n2)c(OC)cc1N1CCC(N2CCN(CCOc3cccc4c3CN(C3CCC(=O)NC3=O)C4=O)CC2)CC1` (stereo not shown) [Example E177], the IC50 is > 4000 nM.

For another experiment, the target named is T1, BaF3 (EGFR Del19/C797S) (Homo sapiens, UniProt P00533, C797S, cells depend on it, form not given).
T1 construct: BaF3 (EGFR Del19/C797S)|DC|RPMI1640 + 10% FBS
T1 sequence (P00533 with tags, fused parts or gaps DEL746-750/C797S, form open): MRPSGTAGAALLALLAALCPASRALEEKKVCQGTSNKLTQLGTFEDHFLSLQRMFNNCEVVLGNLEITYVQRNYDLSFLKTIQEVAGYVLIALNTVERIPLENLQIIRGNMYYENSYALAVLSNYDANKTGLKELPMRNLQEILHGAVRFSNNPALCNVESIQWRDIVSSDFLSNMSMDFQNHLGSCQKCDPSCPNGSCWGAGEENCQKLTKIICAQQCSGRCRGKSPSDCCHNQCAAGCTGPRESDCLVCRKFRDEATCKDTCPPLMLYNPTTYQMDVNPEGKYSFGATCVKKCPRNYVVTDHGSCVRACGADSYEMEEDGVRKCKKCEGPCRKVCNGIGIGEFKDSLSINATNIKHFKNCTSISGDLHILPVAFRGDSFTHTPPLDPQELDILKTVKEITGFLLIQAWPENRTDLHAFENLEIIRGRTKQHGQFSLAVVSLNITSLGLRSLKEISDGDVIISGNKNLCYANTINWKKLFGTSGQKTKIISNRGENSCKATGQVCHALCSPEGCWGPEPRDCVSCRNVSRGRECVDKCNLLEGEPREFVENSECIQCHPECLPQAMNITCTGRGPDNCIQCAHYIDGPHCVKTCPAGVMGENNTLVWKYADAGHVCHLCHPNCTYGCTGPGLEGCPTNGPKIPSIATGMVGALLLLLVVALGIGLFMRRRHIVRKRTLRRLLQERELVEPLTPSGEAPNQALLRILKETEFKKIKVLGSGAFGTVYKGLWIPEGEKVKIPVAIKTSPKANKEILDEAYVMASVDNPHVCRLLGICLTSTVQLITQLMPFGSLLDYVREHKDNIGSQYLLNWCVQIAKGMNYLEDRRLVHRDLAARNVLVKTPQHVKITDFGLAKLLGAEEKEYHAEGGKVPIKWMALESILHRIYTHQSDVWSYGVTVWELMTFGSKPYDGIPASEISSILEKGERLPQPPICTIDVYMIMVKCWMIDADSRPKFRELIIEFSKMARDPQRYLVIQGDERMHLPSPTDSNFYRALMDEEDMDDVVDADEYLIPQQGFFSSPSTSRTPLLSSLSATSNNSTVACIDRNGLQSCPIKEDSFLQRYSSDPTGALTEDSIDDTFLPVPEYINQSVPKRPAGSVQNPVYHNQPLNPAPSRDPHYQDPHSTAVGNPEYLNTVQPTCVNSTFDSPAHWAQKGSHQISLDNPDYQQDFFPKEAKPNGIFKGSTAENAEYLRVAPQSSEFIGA
Briefly: Cell proliferation IC50 assay (Cell Titer GLO), BaF3 DC cells. The experiment is classed as cell-based, mouse. To be noted: Table 6, 72 h. Here is the method:
as §1, §2, §3
(In general: ATP-based viability assays read luminescence as a measure of living cells.)
On to `CCc1cc(Nc2ncc(Cl)c(Nc3ccccc3N(C)S(C)(=O)=O)n2)c(OC)cc1N1CCC(N2CCN(CCC#Cc3cccc4c3CN(C3CCC(=O)NC3=O)C4=O)CC2)CC1` (stereo not shown) [Example E42], for which half-maximal inhibition (IC50) was put at 5.6 nM.
`COc1cc(N2CCC(N3CCN(CCCCOc4cccc5c4CN(C4CCC(=O)NC4=O)C5=O)CC3)CC2)c(CO)cc1Nc1ncc(Cl)c(Nc2ccccc2P(C)(C)=O)n1` (stereo not shown) [Example E127] returned an IC50 of 8.7 nM.
For `CCc1cc(Nc2ncc(C(=O)N3CCCC3)c(Nc3ccccc3P(C)(C)=O)n2)c(OC)cc1N1CCC(N2CCN(CCOc3cccc4c3CN(C3CCC(=O)NC3=O)C4=O)CC2)CC1` (stereo not shown) [Example E148], the IC50 was 9.3 nM.
For the molecule `CCc1cc(Nc2ncc(-c3ccn(C)n3)c(Nc3ccccc3P(C)(C)=O)n2)c(OC)cc1N1CCC(N2CCN(CCOc3cccc4c3CN(C3CCC(=O)NC3=O)C4=O)CC2)CC1` (stereo not shown) [Example E147], the IC50 amounted to 56.1 nM.
As to `CCc1cc(Nc2ncc(-n3ccnc3)c(Nc3ccccc3P(C)(C)=O)n2)c(OC)cc1N1CCC(N2CCN(CCOc3cccc4c3CN(C3CCC(=O)NC3=O)C4=O)CC2)CC1` (stereo not shown) [Example E170], the midpoint of inhibition, the IC50, lay at 3.5 nM.
As for `CCc1cc(Nc2ncc(Cl)c(Nc3ccccc3P(C)(C)=O)n2)c(OC)cc1N1CCC2(CCN(CCCC#Cc3c(F)ccc4c3CN(C3CCC(=O)NC3=O)C4=O)CC2)CC1` (stereo not shown) [Example E74], it took 37.6 nM to reach half-maximal inhibition (IC50).
For `CCc1cc(Nc2ncc(-c3nnc(C)o3)c(Nc3ccccc3P(C)(C)=O)n2)c(OC)cc1N1CCC(N2CCN(CCOc3cccc4c3CN(C3CCC(=O)NC3=O)C4=O)CC2)CC1` (stereo not shown) [Example E177], the midpoint of inhibition, the IC50, lay at 15.7 nM.

Another experiment deals with A431. As to the kind of experiment: Cell proliferation IC50 assay (Cell Titer GLO), A431 cells. The format is cell-based. To be noted: Homo sapiens, A-431; Table 6; A431, 72 h; read-out: A431 IC50. On the procedure:
as §1, §2, §3
Turning to `CCc1cc(Nc2ncc(Cl)c(Nc3ccccc3N(C)S(C)(=O)=O)n2)c(OC)cc1N1CCC(N2CCN(CCC#Cc3cccc4c3CN(C3CCC(=O)NC3=O)C4=O)CC2)CC1` (stereo not shown) [Example E42], the IC50 is 1140 nM.
Regarding `COc1cc(N2CCC(N3CCN(CCCCOc4cccc5c4CN(C4CCC(=O)NC4=O)C5=O)CC3)CC2)c(CO)cc1Nc1ncc(Cl)c(Nc2ccccc2P(C)(C)=O)n1` (stereo not shown) [Example E127], the IC50 is 1270 nM.
Consider `CCc1cc(Nc2ncc(C(=O)N3CCCC3)c(Nc3ccccc3P(C)(C)=O)n2)c(OC)cc1N1CCC(N2CCN(CCOc3cccc4c3CN(C3CCC(=O)NC3=O)C4=O)CC2)CC1` (stereo not shown) [Example E148], for which the IC50 was > 4000 nM.
`CCc1cc(Nc2ncc(-c3ccn(C)n3)c(Nc3ccccc3P(C)(C)=O)n2)c(OC)cc1N1CCC(N2CCN(CCOc3cccc4c3CN(C3CCC(=O)NC3=O)C4=O)CC2)CC1` (stereo not shown) [Example E147]: the IC50 is > 4000 nM.
The same measure, in the same setting: the figure for `CCc1cc(Nc2ncc(-n3ccnc3)c(Nc3ccccc3P(C)(C)=O)n2)c(OC)cc1N1CCC(N2CCN(CCOc3cccc4c3CN(C3CCC(=O)NC3=O)C4=O)CC2)CC1` (stereo not shown) [Example E170] is > 4000 nM; for `CCc1cc(Nc2ncc(Cl)c(Nc3ccccc3P(C)(C)=O)n2)c(OC)cc1N1CCC2(CCN(CCCC#Cc3c(F)ccc4c3CN(C3CCC(=O)NC3=O)C4=O)CC2)CC1` (stereo not shown) [Example E74] it is > 4000 nM.
Consider `CCc1cc(Nc2ncc(-c3nnc(C)o3)c(Nc3ccccc3P(C)(C)=O)n2)c(OC)cc1N1CCC(N2CCN(CCOc3cccc4c3CN(C3CCC(=O)NC3=O)C4=O)CC2)CC1` (stereo not shown) [Example E177], for which the IC50 is > 4000 nM.

The subject of a further experiment is BaF3 (EGFR WT). As to the kind of experiment: Cell proliferation IC50 assay (Cell Titer GLO), BaF3 WT cells. The format is cell-based. To be noted: Mus musculus, Ba/F3 EGFR, Table 6, 10 ng/ml EGF, 72 h. Here is the method:
as §1, §2, §3
The molecule `CCc1cc(Nc2ncc(Cl)c(Nc3ccccc3N(C)S(C)(=O)=O)n2)c(OC)cc1N1CCC(N2CCN(CCC#Cc3cccc4c3CN(C3CCC(=O)NC3=O)C4=O)CC2)CC1` (stereo not shown) [Example E42] displayed an IC50 of 90.7 nM.
Regarding `COc1cc(N2CCC(N3CCN(CCCCOc4cccc5c4CN(C4CCC(=O)NC4=O)C5=O)CC3)CC2)c(CO)cc1Nc1ncc(Cl)c(Nc2ccccc2P(C)(C)=O)n1` (stereo not shown) [Example E127], the IC50 was determined as 595 nM.
As to `CCc1cc(Nc2ncc(C(=O)N3CCCC3)c(Nc3ccccc3P(C)(C)=O)n2)c(OC)cc1N1CCC(N2CCN(CCOc3cccc4c3CN(C3CCC(=O)NC3=O)C4=O)CC2)CC1` (stereo not shown) [Example E148], the IC50 was > 4000 nM.
Still for that read-out and setting: for `CCc1cc(Nc2ncc(-c3ccn(C)n3)c(Nc3ccccc3P(C)(C)=O)n2)c(OC)cc1N1CCC(N2CCN(CCOc3cccc4c3CN(C3CCC(=O)NC3=O)C4=O)CC2)CC1` (stereo not shown) [Example E147] the value was 1570 nM; for `CCc1cc(Nc2ncc(-n3ccnc3)c(Nc3ccccc3P(C)(C)=O)n2)c(OC)cc1N1CCC(N2CCN(CCOc3cccc4c3CN(C3CCC(=O)NC3=O)C4=O)CC2)CC1` (stereo not shown) [Example E170], > 4000 nM; for `CCc1cc(Nc2ncc(Cl)c(Nc3ccccc3P(C)(C)=O)n2)c(OC)cc1N1CCC2(CCN(CCCC#Cc3c(F)ccc4c3CN(C3CCC(=O)NC3=O)C4=O)CC2)CC1` (stereo not shown) [Example E74], > 4000 nM.
On the same count and under the same terms, the figure for `CCc1cc(Nc2ncc(-c3nnc(C)o3)c(Nc3ccccc3P(C)(C)=O)n2)c(OC)cc1N1CCC(N2CCN(CCOc3cccc4c3CN(C3CCC(=O)NC3=O)C4=O)CC2)CC1` (stereo not shown) [Example E177] is > 4000 nM.

The record behind these values is patent US20240408216A1, “PROTEIN INHIBITOR OR DEGRADING AGENT, PHARMACEUTICAL COMPOSITION CONTAINING SAME AND PHARMACEUTICAL USE” (JING MEDICINE TECHNOLOGY (SHANGHAI) LTD., priority 2021, published 2024).
